Assay results published in EP0687253B1, “4-AMINOPYRIDINES, PROCESS FOR PREPARING THE SAME AND MEDICAMENTS CONTAINING THE SAME” (BOEHRINGER MANNHEIM GMBH, priority 1993, dated 1994).

Legend:
Pferdethrombin = experiment: Thrombin time (clotting of human citrate plasma with thrombin reagent, ball coagulometer); assay type: biochemical, Pferd; settings: thrombin time as difference to control (control ca. 24 Sek.), test stopped at 5 Min.; for TT2.5: 2.5 µM in final volume; for TT25: 25 µM in final volume; for TT250: 250 µM in final volume
Procedure: Ein in der klinischen Gerinnungsdiagnostik gebräuchlicher Test ist die Thrombinzeit. Dieser Parameter erfaßt die Thrombinwirkung auf Fibrinogen und die Gerinnselbildung. Inhibitoren von Thrombin bewirken eine Verlängerung der Thrombinzeit.
Zur Plasmagewinnung wurden 9 Teile frisches Blut gesunder Spender mit einem Teil Natriumcitratlösung (0.11 Mol/l) gemischt und bei ca. 3000 U/min 10 Min. bei Raumtemperatur zentrifugiert. Das Plasma wurde abpipettiert und kann bei Raumtemperatur ca. 8 h aufbewahrt werden.
200 µl Citratplasma wurden in einem Kugelkoagulometer (KC 10 der Firma Amelung) 2 Min. bei 37 °C inkubiert, Zu 190 µl vortemperiertem Thrombin-Reagenz (Boehringer Mannheim GmbH; enthält ca. 3 U/ml Pferdethrombin und 0.0125 M Ca^++) gab man 10 µl Dimethylsulfoxid (DMSO) oder eine Lösung der Wirksubstanz in DMSO. Mit Zugabe dieser 200 µl Lösung zum Plasma wurde eine Stoppuhr gestartet und der Zeitpunkt bis zum Eintritt der Gerinnung bestimmt. Die Thrombinzeit betrug bei den Kontrollmessungen ca. 24 Sek. und wurde durch die Wirksubstanzen deutlich verlängert. War die Thrombinzeit in Gegenwart einer Beispielverbindung länger als 5 Min.. wurde der Versuch abgebrochen.
In der folgenden Tabelle sind die gemessenen Thrombinzeiten in Sekunden als Differenz zur Kontrolle angegeben. Die Konzentrationen der Wirksubstanzen betrugen im Endvolumen 250 µM (TT250), 25 µM (TT25) und 2.5 µM (TT2.5).

humanem α-Thrombin = molecular target: T1, humanem α-Thrombin (Homo sapiens, UniProt P00734); experiment: Thrombin inhibition, kinetic measurement with chromogenic substrate S-2238; assay type: biochemical; settings: 0,1 M phosphate buffer, pH = 7.5, 25 °C, substrate H-(D)-Phe-Pro-Arg-pNA (S-2238)
T1 construct: humanem α-Thrombin (Sigma, spezifische Aktivität = 2150 NIH-units/mg); purchased Sigma
Procedure: Die kinetischen Messungen wurden in 0,1 M Phosphatpuffer, der 0.2 M Kochsalz und 0.5 % Polyethylenglycol 6000 enthielt. bei einem pH = 7.5 und 25 °C mit dem Substrat H-(D)-Phe-Pro-Arg-pNA (S-2238 Kabi) und humanem α-Thrombin (Sigma, spezifische Aktivität = 2150 NIH-units/mg) in Polystyrol-Halbmikroküvetten in einem Gesamtvolumen von 1 ml durchgeführt.
In einem Vorversuch wurde mit jeder Wirksubstanz bestimmt, ob sie Thrombin schnell oder langsam inhibiert. Dazu wurde die Reaktion einmal durch Zugabe von 0.03 NIH-units Thrombin zu einer 100 µM-Lösung des Substrats und des Wirkstoffs gestartet. In einem zweiten Versuch wurde Substrat zu einer 5 Min. inkubierten Lösung des Thrombins und des Wirkstoffs gegeben. Die Zunahme der Konzentration von p-Nitroanilin mit der Zeit wurde spektroskopisch (UV-VIS-Spektrophotometer Lambda-2 der Firma Perkin-Elmer) bei 405 nm 12 Min. verfolgt. Da die bei beiden Versuchen erhaltenen Messkurven linear und parallel waren, handelt es sich bei den Wirkstoffen der folgenden Tabelle um schnelle Thrombin-Inhibitoren. Die Inhibitionskonstanten Ki wurden dann wie folgt bestimmt. Das Substrat wurde in den Konzentrationen 100 µM, 50 µM. 30 µM, 20 µM eingesetzt und bei jeder Substratkonzentration eine Messung ohne Inhibitor und drei Messungen in Gegenwart unterschiedlicher Konzentrationen der in der folgenden Tabelle aufgeführten Inhibitoren durchgeführt. Die Reaktionen wurden durch Zugabe von Thrombin gestartet. Die Zunahme der Extinktion bei 405 nm durch das entstehende p-Nitroanilin über einen Zeitraum von 12 Min. verfolgt. Im Abstand von 20 Sek. wurden Meßpunkte (Zeit vs. Extinktion) auf einen PC übertragen. Aus den Daten wurden die Geschwindigkeiten Vo (Extinktionsänderung pro Sek.: Messungen ohne Inhibitor) und Vi (Messungen mit Inhibitor) durch lineare Regression bestimmt. Benutzt wurde nur der Teil jeder Messung. bei dem sich die Substratkonzentration um weniger als 15 % vermindert hatte. Aus einer Meßreihe (konstante Inhibitorkonzentration, variable Substratkonzentrationen) bestimmte man Km' und Vmax durch nichtlinearen Fit auf die Gleichung V =(Vmax ∗ [S])/([S] + Km ') [formula]
Aus den gesamten Meßreihen berechnete man schließlich Ki durch nichtlinearen Fit auf die Gleichung V =(Vmax ∗ [S])/(Km ∗ (1 + […] ) + [S]) [formula] Die Michaeliskonstante Km betrug in allen Messungen 3.8 ± 2 µM. Die Inhibitionskonstanten Ki der Wirksubstanzen sind in der folgenden Tabelle in der Einheit µM angegeben.

SMILES | TT2.5 (Pferdethrombin) [Sekunden] | TT25 (Pferdethrombin) [Sekunden] | TT250 (Pferdethrombin) [Sekunden] | Ki (humanem α-Thrombin) [nM]
O=S(=O)(Nc1cccc(OCCNc2ccncc2)c1)c1cccc2ccccc12 [Beispiel 2, N-{3-[2-(Pyridin-4-ylamino)-ethoxy]-phenyl}-1-naphthalin-sulfonamid] | 6 | 40 | 150 | 300
O=S(=O)(Nc1cccc(OCCNc2ccncc2)c1)C1CCCCC1 [Beispiel 8, N-{3-[2-(Pyridin-4-ylamino)-ethoxy]-phenyl}-cyclohexan-sulfonamid] | 13 | 58 | 288 | 1000
CC(CNc1ccncc1)Oc1cccc(NS(=O)(=O)c2ccccc2)c1 (centres unmarked) [Beispiel 10, N-{3-[1-Methyl-2-(pyridin-4-ylamino)-ethoxy]-phenyl}-benzolsulfonamid] | 7 | 43 | 157 | 3000
O=S(=O)(c1ccccc1)N(Cc1ccccc1)c1cccc(OCCNc2ccncc2)c1 [Beispiel 15, N-Benzyl-N-{3-[2-(pyridin-4-ylamino)-ethoxy]-phenyl}-benzolsulfonamid] | 15 | 144 | 270 | 130
COc1ccc(OCCNc2ccncc2)cc1NS(=O)(=O)c1ccccc1 [Beispiel 59, N-{2-Methoxy-5-[2-(pyridin-4-ylamino)-ethoxy]-phenyl}-benzolsulfonamid] | 0 | 8 | 53 | 6000
Cc1ccc(OCCNc2ccncc2)cc1NS(=O)(=O)c1ccccc1 [Beispiel 60, N-{2-Methyl-5-[2-(pyridin-4-ylamino)-ethoxy]-phenyl}-benzolsulfonamid] | 13 | 62 | 137 | 600
Cc1cc(OCCN(C)c2ccncc2)cc(OS(=O)(=O)c2ccccc2Cl)c1 [Beispiel 72, 2-Chlorbenzolsulfonsäure-5-methyl-3-[2-(N-methyl-pyridin-4-ylamino)-ethoxy]-phenylester] | 159 | 300 | 300 | 24
O=S(=O)(Nc1cc(NCCNc2ccncc2)cc(C(F)(F)F)c1)c1ccccc1 [Beispiel 79, N-{3-[2-(Pyridin-4-ylamino)-ethylamino]-5-trifluormethyl-phenyl}-benzolsulfonamid] | 0 | 8 | 30 | 5000
COc1cc(OCCNc2ccncc2)cc(S(=O)(=O)N(C)c2ccccc2)c1 [Beispiel 80, 3-Methoxy-N-methyl-N-phenyl-5-[2-(pyridin-4-ylamino)-ethoxy]-benzolsulfonamid] | 44 | 213 | 300 | 150
COc1cc(OCCNc2ccncc2)cc(N(C)S(=O)(=O)c2ccccc2)c1 [Beispiel 83, N-Methyl-N-{3-[2-(pyridin-4-ylamino)-ethoxy]-5-methoxy-phenyl}-benzolsulfonamid] | 48 | 192 | 300 | 100
O=S(=O)(c1cc(Cl)cc(NCCNc2ccncc2)c1)N(Cc1ccccc1)c1ccccc1 [Beispiel 86, 3-Chlor-N-benzyl-N-phenyl-5-[2-(pyridin-4-ylamino)-ethylamino]-benzolsulfonamid] | 11 | 167 | 300 | 40
O=S(=O)(Nc1cc(Br)cc(NCCNc2ccncc2)c1)c1ccccc1 [Beispiel 89, N-{3-[2-(Pyridin-4-ylamino)-ethylamino]-5-brom-phenyl}-benzolsulfonamid] | 6 | 38 | 132 | 1000
CCc1cc(OCCNc2ccncc2)cc(OS(=O)(=O)c2ccccc2)c1 [Beispiel 90, Benzolsulfonsäure-3-ethyl-5-[2-(pyridin-4-ylamino)-ethoxy]-phenyl-ester] | 125 | 300 | 300 | 24
Cc1cc(OCCNc2ccncc2)cc(N(CCN)S(=O)(=O)c2ccccc2)c1 [Beispiel 100, N-(2-Aminoethyl)-N-{3-[2-(pyridin-4-ylamino)-ethoxy]-5-methyl-phenyl}-benzolsulfonamid] | 186 | 300 | 300 | 83
Cc1cc(OCCNc2ccncc2)cc(N(CCCCCC(=O)O)S(=O)(=O)c2ccccc2)c1 [Beispiel 108, 6-(Benzolsulfonyl-{3-methyl-5-[2-(pyridin-4-yl-amino)-ethoxy]-phenyl}-amino)-hexansäure] | 62 | 300 | 300 | 55
Cc1cc(OCCNc2ccncc2)cc(N(C)S(=O)(=O)c2ccccc2OCC(=O)O)c1 [Beispiel 124] | 104 | 300 | 300 | 250
CCOC(=O)N(c1cc(C)cc(OCCNc2ccncc2)c1)S(=O)(=O)c1ccccc1OC [Beispiel 125, N-Ethoxycarbonyl-N-{3-methyl-5-[2-(pyridin-4-ylamino)-ethoxy]-phenyl}-2-methoxybenzolsulfonamid] | 73 | 273 | 300 | 150
